Type in all cases: functional
Assay [1] relates to Mycobacterium tuberculosis. The experiment in a line: Antimycobacterial activity against ofloxacin-resistant Mycobacterium tuberculosis H37Rv SRI 4000 at MIC after 7 days by broth microdilution assay relative to control. On the technique in general: Dilution methods test growth across graded concentrations, often in twofold steps.
Assay [2] relates to Mycobacterium tuberculosis. The experiment in a line: Antimycobacterial activity against rifampin-resistant Mycobacterium tuberculosis H37Rv SRI 1367 after 7 days by broth microdilution assay. The following applies: H37Rv SRI 1367, 168 h.
The subject of assay [3] is Mycobacterium tuberculosis. The assay is described as follows: Antimycobacterial activity against ofloxacin-resistant Mycobacterium tuberculosis H37Rv SRI 4000 after 7 days by broth microdilution assay. The following applies: H37Rv SRI 4000, 168 h.
Assay [4] concerns Mycobacterium tuberculosis. The assay is described as follows: Antimycobacterial activity against isoniazid-resistant Mycobacterium tuberculosis H37Rv SRI 1369 at MIC after 7 days by broth microdilution assay relative to control.
Assay [5] concerns Mycobacterium tuberculosis. The experiment in a line: Antimycobacterial activity against rifampin-resistant Mycobacterium tuberculosis H37Rv SRI 1367 at MIC after 7 days by broth microdilution assay relative to control.
Assay [6] relates to Mycobacterium tuberculosis. The experiment in a line: Antimycobacterial activity against isoniazid-resistant Mycobacterium tuberculosis H37Rv SRI 1369 after 7 days by broth microdilution assay. The following applies: H37Rv SRI 1369, 168 h.

In brackets after ≈: the same amount, converted by molar mass.

Turning to `CCOC(=O)c1cc(C(=O)c2ccccc2)n2ccc(-c3cc[n+](CC(=O)c4ccc(OC)cc4)cc3)cc12.[Br-]`, the “inhibition (INH)” value is reported as 61% in assay [1], 60% in assay [4] and 65% in assay [5]. Besides, the MIC in assay [2] is 1.17 µg/mL; in assay [3], 1.17 µg/mL; in assay [6], 4.69 µg/mL.

In the case of `NNC(=O)c1ccncc1` [ISONIAZID], the MIC in assay [2] was determined as 0.02 µg/mL (≈ 0.146 µM). Moreover, the “inhibition (INH)” value in assay [5] turned out to be 92%.

Consider `CO[C@H]1/C=C/O[C@@]2(C)Oc3c(C)c(O)c4c(O)c(c(/C=N/N5CCN(C)CC5)c(O)c4c3C2=O)NC(=O)/C(C)=C\C=C\[C@H](C)[C@H](O)[C@@H](C)[C@@H](O)[C@@H](C)[C@H](OC(C)=O)[C@@H]1C` [RIFAMPIN], for which the “inhibition (INH)” value is on record as 80% in assay [1] and 56% in assay [4]. Moreover, the minimal inhibitory concentration (MIC) in assay [3] was 0.05 µg/mL (≈ 0.0608 µM); in assay [6] it was 0.02 µg/mL (≈ 0.0243 µM).

By MIC is commonly meant the least concentration at which growth counts as inhibited. Low readings indicate inhibition by little substance, high ones a need for much substance.
